What all share (test): 5-day viable cell number and apoptosis (7-AAD exclusion/Annexin V flow cytometry)
What all share (type): cell-based
On the technique in general: In flow cytometry, cells or beads pass a laser one at a time.

One assay relates to WSU-DLCL2. The conditions noted are these: Homo sapiens, WSUDLCL2; WSU-DLCL2 cells (Table 3); read-out: IC50. The source says:
(§1) The DLBCL panel includes seven cell lines classified as activated B-cell (ABC) subtype, thirteen cell lines classified as the germinal center B-cell (GCB) subtype, and three cell lines classified as primary mediastinal B-cell lymphoma (PMBL). […] The translocation of MYC, BCL6, or BCL2 to an IG locus usually leads to high levels of mRNA and protein due to the active transcription driven by a constitutively active IG promoter. […] Expressions of CRBN protein and known substrates, Ikaros, Aiolos, and ZFP91 were also evaluated (FIG. 1, panels B and C).
(§2) The panel of cell lines were treated with increasing doses of compounds for five days, at which time the number of viable cells was measured and the amount of apoptosis was determined by 7-AAD exclusion and Annexin V staining using flow cytometry.

The subject of another assay is KARPAS-1106P. The note with it: Homo sapiens; KARPAS-1106P cells (Table 3); read-out: IC50.
Description: as §1, §2

In a further assay the test system is RIVA. The conditions noted are these: RIVA cells (Table 3); read-out: IC50.
Description: as §1, §2

The test system of another assay is U2932. The conditions noted are these: Homo sapiens; U2932 cells (Table 3); read-out: IC50.
Description: as §1, §2

The test system of a further assay is OCI-LY-7. The conditions noted are these: Homo sapiens, OCI-Ly7; OCI-LY-7 cells (Table 3); read-out: IC50.
Description: as §1, §2

In another assay the test system is SU-DHL-8. The conditions noted are these: Homo sapiens; SU-DHL-8 cells (Table 3); read-out: IC50.
Description: as §1, §2

Another assay has as its system RC-K8. The note with it: Homo sapiens, RCK8; RC-K8 cells (Table 3); read-out: IC50.
Description: as §1, §2

For the next assay, the system named is KARPAS-422. The conditions noted are these: Homo sapiens; KARPAS-422 cells (Table 3); read-out: IC50.
Description: as §1, §2

A further assay deals with U2940. The note with it: Homo sapiens, U-2940; U2940 cells (Table 3); read-out: IC50.
Description: as §1, §2

The subject of a further assay is SU-DHL-4. The conditions noted are these: Homo sapiens; SU-DHL-4 cells (Table 3); read-out: IC50.
Description: as §1, §2

The subject of a further assay is TMD8. The note with it: Homo sapiens; TMD8 cells (Table 3); read-out: IC50.
Description: as §1, §2

In the next assay the test system is Farage. The conditions noted are these: Farage cells (Table 3); read-out: IC50.
Description: as §1, §2

The next assay relates to DB. The conditions noted are these: Homo sapiens; DB cells (Table 3).
Description: as §1, §2

A further assay has as its system SU-DHL-2. The note with it: Homo sapiens; SU-DHL-2 cells (Table 3); read-out: IC50.
Description: as §1, §2

Another assay has as its system HT. The note with it: Homo sapiens; HT cells (Table 3); read-out: IC50.
Description: as §1, §2

In a further assay the test system is Toledo. The note with it: Homo sapiens; Toledo cells (Table 3); read-out: IC50.
Description: as §1, §2

For the next assay, the system named is OCI-Ly10. The note with it: Homo sapiens; OCI-Ly10 cells (Table 3); read-out: IC50.
Description: as §1, §2

The test system of the next assay is Pfeiffer. The conditions noted are these: Homo sapiens; Pfeiffer cells (Table 3).
Description: as §1, §2

The subject of a further assay is SU-DHL-16. The note with it: Homo sapiens; SU-DHL-16 cells (Table 3); read-out: IC50.
Description: as §1, §2

Structures are written as SMILES.

As usually defined, the IC50 is the concentration that gives 50% inhibition. Take `COc1cccc2c1C(=O)c1c(O)c3c(c(O)c1C2=O)C[C@@](O)(C(=O)CO)C[C@@H]3O[C@H]1C[C@H](N)[C@H](O)[C@H](C)O1` [Doxorubicin, reference compound]: the IC50 with WSU-DLCL2 came to 1500 nM; with KARPAS-1106P, 1700 nM; in the assay with RIVA, 5500 nM; with U2932, 3000 nM; in the assay on OCI-LY-7, 5000 nM; in the assay with SU-DHL-8, 600 nM. The IC50 with RC-K8 turned out to be 3500 nM; in the assay on KARPAS-422, 1000 nM; with U2940, 2000 nM; in the assay with SU-DHL-4, 1000 nM; in the assay on TMD8 it was 700 nM; in the assay with Farage it was 1200 nM. Also, the IC50 in the assay with DB came out at 3800 nM; with SU-DHL-2, 1300 nM; in the assay on HT, 2000 nM; in the assay on Toledo, 4000 nM; in the assay with OCI-Ly10, 3000 nM; in the assay with Pfeiffer it was 3000 nM. Besides, in the assay with SU-DHL-16, the IC50 worked out at 1500 nM.

The record behind these values is patent US20210116454A1, “METHODS FOR TREATING A HEMATOLOGICAL CANCER AND THE USE OF COMPANION BIOMARKERS FOR 2-(2,6-DIOXOPIPERIDIN-3-YL)-4-((2-FLUORO-4-((3-MORPHOLINOAZETIDIN-1-YL)METHYL)BENZYL)AMINO)ISOINDOLINE-1,3-DIONE” (CELGENE CORPORATION, priority 2019, published 2021).
